ChEMBL document CHEMBL5728881, “Substituted 6-azabenzimidazole compounds” (2021)

Molecular target: Mitogen-activated protein kinase kinase kinase kinase 1 (Homo sapiens, UniProt Q92918)
Test: TBHPK1 IC50 Assay: Ten nanoliters of test compounds dissolved in DMSO at various concentrations were dispensed into a 384-well ProxiPlate (PerkinElmer #6008289). Five microliters of a solution of recombinant HPK1 diluted in HPK1 kinase assay buffer (50 mM BES [N,N-Bis(2-hydroxyethyl)-2-aminoethanesulfonic acid], pH 7.0; 10 mM magnesium chloride; 0.01% Triton X-100; 1 mM dithiothreitol; 0.01% bovine serum albumin; 0.1 mM sodium orthovanadate) was added to the compound-containing plate and was incubated for 15 minutes at 25° C. Five microliters of a mixture of ATP (Sigma-Aldrich #A6559) and peptide substrate STK S1 (Cisbio #61ST1BLC) diluted in HPK1 kinase assay buffer was then added to start the reaction. Final concentrations were 0.15 nM for HPK1, 10 μM for ATP, and 1 μM for the STK S1 peptide substrate. The reaction mixture was incubated at 25° C. for 3 hours and was stopped with the addition of 10 μl of an EDTA (Ethylenediaminetetraacetic acid)-containing detection buffer (Cisbio #62SDBRDF) supplemented with Europium cryptate-labeled anti-phospho-serine/threonine antibodies (Cisbio #62ST1PEJ) and XL665-labeled streptavidin (Cisbio #610SAXLG). The mixture was incubated for 16 hours at room temperature and peptide phosphorylation was measured by time-resolved fluorescence energy transfer (665 nm/620 nm) on an Envision plate reader (PerkinElmer).

Sequence of Mitogen-activated protein kinase kinase kinase kinase 1 (Q92918 whole entry): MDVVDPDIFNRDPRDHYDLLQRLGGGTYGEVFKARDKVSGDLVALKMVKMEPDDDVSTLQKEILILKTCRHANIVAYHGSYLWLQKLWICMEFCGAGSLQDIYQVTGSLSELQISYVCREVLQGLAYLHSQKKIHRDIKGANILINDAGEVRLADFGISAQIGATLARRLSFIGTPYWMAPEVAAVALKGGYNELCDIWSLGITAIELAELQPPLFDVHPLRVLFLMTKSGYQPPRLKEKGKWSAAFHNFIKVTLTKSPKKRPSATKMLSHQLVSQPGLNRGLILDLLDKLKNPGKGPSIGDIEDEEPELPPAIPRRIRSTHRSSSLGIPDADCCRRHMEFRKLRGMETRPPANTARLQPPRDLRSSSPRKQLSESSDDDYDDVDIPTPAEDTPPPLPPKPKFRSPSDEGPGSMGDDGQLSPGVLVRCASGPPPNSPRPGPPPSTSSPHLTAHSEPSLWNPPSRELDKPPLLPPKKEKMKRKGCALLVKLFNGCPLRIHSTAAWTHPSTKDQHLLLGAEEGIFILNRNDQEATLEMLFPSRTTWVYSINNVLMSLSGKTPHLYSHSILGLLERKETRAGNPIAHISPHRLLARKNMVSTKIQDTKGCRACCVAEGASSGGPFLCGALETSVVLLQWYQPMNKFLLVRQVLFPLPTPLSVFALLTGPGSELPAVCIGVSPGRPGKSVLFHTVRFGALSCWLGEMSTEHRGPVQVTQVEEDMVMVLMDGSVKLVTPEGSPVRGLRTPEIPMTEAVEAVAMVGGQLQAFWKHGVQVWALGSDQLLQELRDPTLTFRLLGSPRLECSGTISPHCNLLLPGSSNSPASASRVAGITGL

Compound	IC50 [nM]
CNC(=O)c1cc(Nc2nc(-c3ccc4c(c3)N([C@H]3C[C@@H](N5CC[C@H](C(F)F)C5)C3)C(=O)C4(C)C)cc3ncn(C(C)C)c23)ccc1C	0.2
CC(C)n1cnc2cc(-c3cnc4c(c3)N([C@H]3C[C@](C)(N5CCC6CC6C5)C3)C(=O)C4(C)C)nc(Nc3cc(C(=O)NC4(CF)CC4)c(Cl)c(F)c3F)c21 (some centres not stated)	0.09
